Measurements: patent US8969515B2, “Pharmaceutical composition for treating hyperproliferative diseases” (OOO “MetaMax”, priority 2011, dated 2015)

What was measured:
[1] = tested on: cell lines HEK293 and A549; assay: Cell cycle arrest by chemotherapeutics alone, preliminary experiments; type: cell-based, human; settings: 100 nMol
Description: This concentration for all drugs was 100 nMol.

[2] = tested on: A549 cells xenograft; assay: Anti-tumor activity in vivo, local injection, A549 xenograft; settings: 24 days
Description: 10 mice constituted the 1st treatment group. […] The experiment lasted 24 days.
In the experimental groups, we observed a reduced tumor growth and on day 6 after the begin of administration of the peptide there could be observed a significant reduction in tumor volume in experimental groups compared with the control ones (FIG. 32). The experiment lasted 24 days. During this time, we performed 10 injections of the chimeric peptide in the experimental groups. In the control group, on day 24 of the experiment, the average tumor volume in mice was 95.24 mm^3, one mouse died. In the first experimental group (administered dose of peptide—0.1 mg) average tumor volume was 39.29 mm^3, one mouse died.

[3] = tested on: HCT-116 cells xenograft; assay: Anti-tumor activity in vivo, local injection, HCT-116 xenograft; parameters: species or system mice; settings: 0.1 mg group, 28 days
Description: The tumor nodule of HCT-116 cells is characterized by a large in size and the presence of ulceration. In the control group, on day 28 of the experiment the average tumor volume reached 679 mm^3, 3 mice died during the experiment. In the test group, a lower rate of tumor growth was observed (FIG. 32), on day 28 of the experiment the average tumor volume was 225.4 mm^3, the number of dead animals in the experimental group was 2.

[4] = tested on: HEK293 cell line synchronized in G0/G1 phase; assay: Cell cycle phase analysis by flow cytofluorometry after sync block removal; type: cell-based, human; settings: for antiproliferative effect on cell cycle: peptide added at sync block removal
Procedure: (§1) In experiments with cell lines we evaluated the distribution of cells according to the phases of the cell cycle and calculated the proliferation index. For analysis we used software FloMax 2.0 (built-in option of flow cytofluorimenter) and software Modfit LT 3.0 (FIGS. 7 and 8). We also carried out the determination of the proportion of cells entered the apoptosis based on size of “pre-G1-hypodiploid” peak on DNA histogram (FIG. 8 (B)). Experiments were performed both on cell lines synchronized in phase G1/S, and on non-synchronized cell lines Raji, Jurkatt, A549, HEK 293, MCF-7.
The study of the effects of peptides was conducted on transplantable cell cultures. In order to study alterations in the expression of specific intracellular regulators and in order to improve visualization of the experiments, the cells were pre-synchronized.
At the first stage of the evaluation of the obtained results, we investigated the effect of internalizable chimeric peptides with different active centers—p16INK4a and p21/CIP/KIP. The chimeric peptide to be studied was added at the moment of the sync block removal. Cell cycle analysis was performed every 2 hours for 24 hours after removal of the block.
We investigated chimeric peptides having p16INK4a active center and having different types of vectors, Tat and pAntp. […] As is seen from FIG. 18, plots of dependencies of the number of cells in the cell cycle phases are similar in appearance for the two types of peptide vectors carrying p16 fragment. In the control sample—synchronized cell culture without the addition of the study peptide, the number of cells in G0/G1-phase starts to decline as early as 2 hours after removal of the synch block, and 10 hours later we recorded the lowest number of cells in G0/G1-phase. S-phase in the control samples starts to increase 4-6 hours after sync block removal and reaches a maximum after 12 hours.

[5] = tested on: cyclin B; assay: Cyclin B mRNA expression by quantitative RT-PCR; type: cell-based, human
Procedure: FIG. 29. Study of cyclin B synthesis in HEK293 cell culture by adding peptide Tat_p16 (30 µMol). […] X-axis—incubation time (hours), Y-axis—abstract units.
It is known that the phosphorylation of pRb is an initiating step for activation of expression of cyclins A and B and for transition of cells from G1 into S phase of the cell cycle. Quantitative PCR method was used to study mRNA expression level of cyclin B when exposed to Tat_p16 peptide. For this purpose during experiment on synchronized culture with adding Tat_p16 chimeric peptide at a concentration of 40 µmol, we performed a parallel selection of cells from samples for RNA extraction, whereas a part of the cells served the determination of the cell cycle phases. Further processing of the material involved RNA isolation and quantitative PCR reaction setting (RT-PCR) carried out according to the protocol.

[6] = tested on: HEK293 cell line; assay: Apoptosis level (hypodiploid peak) in HEK293 culture; type: cell-based, human; settings: synchronized culture
Procedure: FIG. 16. Mean apoptosis values for synchronized HEK293 cell culture in a series of experiments using internalized peptides with active centers p21 and p16. Incubation time with peptide is 24 hours. Concentration of peptides is 40 µMol. Y-axis—percentage of apoptotic particles.
FIG. 20. Mean apoptosis values in synchronized culture of HEK293 after addition of chimeric peptides Tat_p16 and pAntp p16. […] The peptides were added at the moment of synchronization block removal. The effect was evaluated after 24 hours.
FIG. 21. Change in the level of apoptosis in the cell culture depending on the incubation time with peptides Tat_p16 and pAntp_p16 for synchronized 293 cell line (A) and synchronized A549 cell line (B).
as §1

[7] = tested on: cell lines A549, HEK293 and MCF-7; assay: Apoptosis level with pAntp chimeric peptide versions; type: cell-based, human; settings: 40 μM, lines A549 and HEK 293, non-synchronized and synchronized
Procedure: FIG. 24. Effect of chimeric peptides containing a p16INK4a fragment on apoptosis level in non-synchronized and synchronized cell line A549. Peptide concentration is 40 µM. Y-axis—percentage of apoptotic bodies.
FIG. 25. Effect of chimeric peptides containing a p16INK4a fragment on apoptosis level in non-synchronized and synchronized HEK293 cell line. Peptide concentration is 40 µM. Y-axis—percentage of apoptotic bodies.
FIG. 26. Comparisons of cytotoxic effect of chimeric peptides pAntpp16 (1, 2) on HEK293 cell culture.
In the next phase of work, we assessed the dependence of the cytotoxic effect exerted by the chimeric test peptides with the peptide vector pAntp. An experiment to determine the level of apoptosis was carried out on the cell lines A549 (human, lung carcinoma), HEK293 (human, embryonic kidney) and MCF-7 (human, mammary adenocarcinoma). Cells were cultured by standard techniques in DMEM medium containing 10% of FSB. A part of the cells was previously synchronized using the method of double thymidine block and synchronization method with the depleted media (see “Experiment. Parts”). The chimeric test peptides pAntp-p16 (1 and 2) were added to the culture medium. As a negative control we used cells treated with the peptide pAntp_zam (FIGS. 24, 25).

[8] = tested on: HEK293 cell line, non-synchronized and synchronized; assay: Effect of pAntp chimeric peptide versions on cell cycle, HEK293; type: cell-based, human; settings: 40 μM; for changes of the cell cycle phases: synchronized and nonsynchronized cells
Procedure: FIG. 22. Effect of chimeric peptide pAntp containing a p16INK4a fragment, on the cell cycle. A—non-synchronized cell line HEK293, B—cell line HEK293 synchronized in S-phase. Peptide concentration is 40 µM. The peptides are pAntp and three further peptides 1-p16, 2-p16, and 3-p16, wherein peptides 1-p16 and 2-p16 are synthetic peptides differing by the location of the 20 amino acids fragment of p16 relative to pAntp; and peptide 3-p16 is a genetically engineered peptide comprising a 50 amino acids insert of protein Antp.
We used three versions of the chimeric peptide containing p16INK4a active center and pAntp vector. These chimeric peptides differ by location of the active center relative to N-C termini of the molecule and the presence of an insertion of 44 amino acids ([…], SEQ ID NO: 9) for peptide 3 produced by genetic engineering method (Table 1).
In the study of the properties of these peptides we also investigated synchronized and nonsynchronized cell cultures. In a synchronized culture, the peptide was added at the time of sync block removal and in the nonsynchronized at a monolayer density (for adhesion cultures) of ~50%.

[9] = after sync block removal, 40 μM

O=c1[nH]cc(F)c(=O)[nH]1 [5-fluorouracil]
cell cycle arrest phase [1]: G0/G1-phase arrest

COc1cc([C@@H]2c3cc4c(cc3[C@@H](O[C@@H]3O[C@@H]5CO[C@@H](C)O[C@H]5[C@H](O)[C@H]3O)[C@H]3COC(=O)[C@H]23)OCO4)cc(OC)c1O [Etoposide]
cell cycle arrest phase [1]: S-phase arrest

CC(=O)O[C@H]1C(=O)[C@@]2(C)[C@H]([C@H](OC(=O)c3ccccc3)[C@]3(O)C[C@H](OC(=O)[C@H](O)[C@@H](NC(=O)c4ccccc4)c4ccccc4)C(C)=C1C3(C)C)[C@]1(OC(C)=O)CO[C@@H]1C[C@@H]2O [Taxol]
cell cycle arrest phase [1]: G2/M-phase arrest

CC[C@H](C)[C@H](NC(=O)[C@H](CCCCN)NC(=O)[C@@H](NC(=O)[C@H](CCC(N)=O)NC(=O)[C@H](CCCNC(=N)N)NC(=O)[C@H](CO)NC(=O)[C@H](CCCNC(=N)N)NC(=O)[C@H](C)NC(=O)CNC(=O)[C@H](C)NC(=O)[C@H](CCCNC(=N)N)NC(=O)[C@H](Cc1c[nH]cn1)NC(=O)[C@H](CC(C)C)NC(=O)[C@@H](NC(=O)[C@@H](NC(=O)[C@H](CC(C)C)NC(=O)[C@@H](NC(=O)[C@H](CC(=O)O)NC(=O)[C@H](CC(C)C)NC(=O)[C@H](Cc1ccccc1)NC(=O)CNC(=O)[C@H](CCC(=O)O)NC(=O)[C@H](CCCNC(=N)N)NC(=O)[C@H](C)NC(=O)[C@H](C)NC(=O)[C@@H](N)CC(=O)O)[C@@H](C)O)C(C)C)C(C)C)[C@@H](C)CC)C(=O)N[C@@H](Cc1c[nH]c2ccccc12)C(=O)N[C@@H](Cc1ccccc1)C(=O)N[C@@H](CCC(N)=O)C(=O)N[C@@H](CC(N)=O)C(=O)N[C@@H](CCCNC(=N)N)C(=O)N[C@@H](CCCNC(=N)N)C(=O)N[C@@H](CCSC)C(=O)N[C@@H](CCCCN)C(=O)N[C@@H](Cc1c[nH]c2ccccc12)C(=O)N[C@@H](CCCCN)C(=O)N[C@@H](CCCCN)C(=O)O [pAntp_p16(2)]
mice died ([2]; 0.1 mg group): one | mice died ([2]; 0.2 mg group): no animals died | number of dead animals [3]: 2

DAAREGFLDTLVVLHRAGARS YGRKKRRQRRRG (DAAREGFLDTLVVLHRAGARSYGRKKRRQRRRG; Tat_p16, chimeric peptide; listed as Homo Sapiens)
time at which G0/G1 phase starts to decrease [4, 9]: simultaneously with G0/G1-phase in control sample | time at which S-phase begins to increase [4, 9]: 12 h | time of maximum S-phase [4, 9]: 14 h | time of maximum difference of cell cycle phases between control and test samples [4, 9]: about 12 hours | time of maximum difference of cell cycle phases between control and test samples ([4]; after sync block removal, 40 μM, listed as Tatp16): 12 h | antiproliferative effect on cell cycle ([4]; 40 μM): arrest of G1-S transition | time at which increase in G2-phase occurs ([4]; same experiment as cyclin B RT-PCR): 16 h | effect on expression of cyclin B ([5]; HEK293 synchronized in G0/G1, Tat_p16 40 μmol): inhibits the expression of B cyclin | incubation time after which cyclin B expression level increases ([5]; control maximum at 12 hours): 16 h

YGRKKRRQRRRGPVKRRLDL [Tat_p21]
dependence of the level of apoptosis on the incubation time [6]: has not been observed | mean apoptosis values versus control samples ([6]; 24 hours, 40 μMol): no significant differences | time of maximum difference of cell cycle phases between control and test samples [4, 9]: 10 to 12 h | time at which G2/M-phase level reaches a maximum value ([4]; average): 18 to 20 h | antiproliferative effect on cell cycle ([4]; 40 μM): arrest of transition of cells from S-phase in G2/M-phase | level of S-phase remaining over 14 hours of incubation ([4]; test sample, over 14 hours): 65-70%

pAntp_p16(1): chimeric peptide, p16INK4a fragment at C-terminus, pAntp at N-terminus (SEQ ID NO: 10), solid phase synthesis (RQIKIWFQNRRMKWKKDAAREGFLDTLVVLHRAGAR; pAntp_p16(1), chimeric peptide; listed as Homo Sapiens)
effect on the level of apoptosis [7]: markedly increases | changes of the cell cycle phases [8]: fails to induce the expected cytostatic effect | anti-proliferative effect on cells ([8]; summary of HEK293 and A549 experiments): does not have an anti-proliferative effect

pAntp_zam: control peptide with p16INK4a sequence (amino acids 82-102) with substitution of tyrosine by alanine at position 92 (RQIKIWFQNRRMKWKKDAAREGFLDALVVLHRAGAR; pAntp_zam, chimeric peptide; listed as Homo Sapiens) [reference compound]
effect on the level of apoptosis [7]: not affected | changes of the cell cycle phases [8]: do not differ from the control
